How the values were obtained:
[1] = target: C-X-C chemokine receptor type 2 (Homo sapiens, UniProt P25025); test: Displacement of [125I]IL-8 from human recombinant CXCR2 receptor after 60 mins by scintillation counting analysis
[2] = target: Adenosine receptor A1 (Homo sapiens) (UniProt P30542); test: Displacement of [3H]-DPCPX from human recombinant adenosine A1 receptor at 10 uM after 60 mins by scintillation counting analysis relative to control
[3] = target: Sodium-dependent dopamine transporter (Homo sapiens) (UniProt Q01959); test: Displacement of [3H][…] from recombinant human Dopamine transporter at 10 uM after 120 mins by scintillation counting analysis relative to control
Sequence of Sodium-dependent dopamine transporter (Homo sapiens) (Q01959 whole entry): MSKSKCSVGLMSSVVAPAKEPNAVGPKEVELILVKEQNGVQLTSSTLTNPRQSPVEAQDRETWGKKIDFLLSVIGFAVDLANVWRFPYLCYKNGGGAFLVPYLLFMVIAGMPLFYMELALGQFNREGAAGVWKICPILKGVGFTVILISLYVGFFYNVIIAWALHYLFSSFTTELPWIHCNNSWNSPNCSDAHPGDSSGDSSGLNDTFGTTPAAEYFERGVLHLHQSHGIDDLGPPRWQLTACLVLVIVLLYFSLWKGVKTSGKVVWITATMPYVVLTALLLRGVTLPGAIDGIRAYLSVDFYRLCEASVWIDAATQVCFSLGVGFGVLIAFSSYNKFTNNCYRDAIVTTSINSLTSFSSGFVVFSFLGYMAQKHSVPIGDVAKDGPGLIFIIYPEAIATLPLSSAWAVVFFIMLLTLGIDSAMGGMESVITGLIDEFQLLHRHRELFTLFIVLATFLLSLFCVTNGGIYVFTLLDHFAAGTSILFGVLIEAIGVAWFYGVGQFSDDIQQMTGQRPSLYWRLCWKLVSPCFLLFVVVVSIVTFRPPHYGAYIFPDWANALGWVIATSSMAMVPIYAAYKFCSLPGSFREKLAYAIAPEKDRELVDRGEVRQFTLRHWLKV

[4] = species on record: Rattus norvegicus; test: Displacement of [3H]D 888 from rat brain L-type calcium channel verapamil binding site at 10 uM after 120 mins by scintillation counting analysis relative to control
[5] = target: 5-hydroxytryptamine receptor 1A (Homo sapiens) (UniProt P08908); test: Displacement of [3H]8-OH-DPAT from recombinant human 5-HT1A receptor at 10 uM after 60 mins by scintillation counting analysis relative to control
Sequence of 5-hydroxytryptamine receptor 1A (Homo sapiens) (P08908 whole entry): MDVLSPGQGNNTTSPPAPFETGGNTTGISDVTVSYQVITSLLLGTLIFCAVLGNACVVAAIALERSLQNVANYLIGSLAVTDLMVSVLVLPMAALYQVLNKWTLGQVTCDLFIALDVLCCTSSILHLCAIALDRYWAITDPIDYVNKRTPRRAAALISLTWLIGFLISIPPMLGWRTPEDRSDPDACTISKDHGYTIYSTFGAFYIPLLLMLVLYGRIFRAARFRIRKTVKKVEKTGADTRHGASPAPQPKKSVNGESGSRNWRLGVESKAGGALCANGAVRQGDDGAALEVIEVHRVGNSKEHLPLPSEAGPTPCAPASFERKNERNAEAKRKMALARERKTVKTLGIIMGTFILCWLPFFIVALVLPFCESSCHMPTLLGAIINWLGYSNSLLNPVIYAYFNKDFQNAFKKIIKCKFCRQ

[6] = target: Sodium-dependent serotonin transporter (Homo sapiens, UniProt P31645); test: Displacement of [3H]-imipramine from recombinant human 5-HT transporter at 1 uM after 60 mins by scintillation counting relative to control
Sequence of Sodium-dependent serotonin transporter (P31645 whole entry, looked up): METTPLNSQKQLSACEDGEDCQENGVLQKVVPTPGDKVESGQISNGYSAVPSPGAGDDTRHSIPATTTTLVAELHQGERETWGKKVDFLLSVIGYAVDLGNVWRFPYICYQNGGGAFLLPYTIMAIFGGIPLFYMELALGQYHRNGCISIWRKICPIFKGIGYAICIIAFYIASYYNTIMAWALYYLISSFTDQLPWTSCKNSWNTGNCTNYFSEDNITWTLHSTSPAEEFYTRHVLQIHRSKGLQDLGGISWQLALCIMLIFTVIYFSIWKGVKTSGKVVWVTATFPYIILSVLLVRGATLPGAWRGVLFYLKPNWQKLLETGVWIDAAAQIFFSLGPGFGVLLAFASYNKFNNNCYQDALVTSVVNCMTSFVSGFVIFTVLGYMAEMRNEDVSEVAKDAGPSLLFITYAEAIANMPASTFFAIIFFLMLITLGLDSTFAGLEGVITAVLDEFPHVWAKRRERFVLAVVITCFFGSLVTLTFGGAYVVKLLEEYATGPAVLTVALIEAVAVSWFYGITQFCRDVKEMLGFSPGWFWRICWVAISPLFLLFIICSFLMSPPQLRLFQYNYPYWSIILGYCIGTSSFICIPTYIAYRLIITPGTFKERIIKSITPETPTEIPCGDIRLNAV

[7] = target: T1, Histamine H2 receptor (Homo sapiens, UniProt P25021); test: Displacement of [125I]APT from human recombinant histamine H2 receptor at 1 uM after 120 mins by scintillation counting analysis relative to control
T1 sequence (P25021 whole entry): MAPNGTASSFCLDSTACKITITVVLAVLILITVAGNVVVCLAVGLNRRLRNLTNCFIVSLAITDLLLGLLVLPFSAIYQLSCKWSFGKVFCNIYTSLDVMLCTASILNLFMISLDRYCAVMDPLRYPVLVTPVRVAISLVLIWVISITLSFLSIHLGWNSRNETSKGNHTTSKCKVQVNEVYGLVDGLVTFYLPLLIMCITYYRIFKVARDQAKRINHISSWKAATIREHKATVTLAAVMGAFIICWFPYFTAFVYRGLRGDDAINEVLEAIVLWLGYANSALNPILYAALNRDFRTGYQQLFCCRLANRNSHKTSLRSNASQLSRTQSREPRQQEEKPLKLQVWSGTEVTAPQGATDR

[8] = Binding affinity to rat GABA receptor after 60 mins by agonist radioligand binding assay
[9] = target: Tyrosine-protein kinase JAK2 (Homo sapiens) (UniProt O60674); test: Inhibition of recombinant GST-tagged human JAK2 catalytic domain (809 to 1153 residues) expressed in baculovirus expression system at 10 uM in presence of ATP relative to control
Sequence of Tyrosine-protein kinase JAK2 (Homo sapiens) (O60674 whole entry, the tested form may be a part): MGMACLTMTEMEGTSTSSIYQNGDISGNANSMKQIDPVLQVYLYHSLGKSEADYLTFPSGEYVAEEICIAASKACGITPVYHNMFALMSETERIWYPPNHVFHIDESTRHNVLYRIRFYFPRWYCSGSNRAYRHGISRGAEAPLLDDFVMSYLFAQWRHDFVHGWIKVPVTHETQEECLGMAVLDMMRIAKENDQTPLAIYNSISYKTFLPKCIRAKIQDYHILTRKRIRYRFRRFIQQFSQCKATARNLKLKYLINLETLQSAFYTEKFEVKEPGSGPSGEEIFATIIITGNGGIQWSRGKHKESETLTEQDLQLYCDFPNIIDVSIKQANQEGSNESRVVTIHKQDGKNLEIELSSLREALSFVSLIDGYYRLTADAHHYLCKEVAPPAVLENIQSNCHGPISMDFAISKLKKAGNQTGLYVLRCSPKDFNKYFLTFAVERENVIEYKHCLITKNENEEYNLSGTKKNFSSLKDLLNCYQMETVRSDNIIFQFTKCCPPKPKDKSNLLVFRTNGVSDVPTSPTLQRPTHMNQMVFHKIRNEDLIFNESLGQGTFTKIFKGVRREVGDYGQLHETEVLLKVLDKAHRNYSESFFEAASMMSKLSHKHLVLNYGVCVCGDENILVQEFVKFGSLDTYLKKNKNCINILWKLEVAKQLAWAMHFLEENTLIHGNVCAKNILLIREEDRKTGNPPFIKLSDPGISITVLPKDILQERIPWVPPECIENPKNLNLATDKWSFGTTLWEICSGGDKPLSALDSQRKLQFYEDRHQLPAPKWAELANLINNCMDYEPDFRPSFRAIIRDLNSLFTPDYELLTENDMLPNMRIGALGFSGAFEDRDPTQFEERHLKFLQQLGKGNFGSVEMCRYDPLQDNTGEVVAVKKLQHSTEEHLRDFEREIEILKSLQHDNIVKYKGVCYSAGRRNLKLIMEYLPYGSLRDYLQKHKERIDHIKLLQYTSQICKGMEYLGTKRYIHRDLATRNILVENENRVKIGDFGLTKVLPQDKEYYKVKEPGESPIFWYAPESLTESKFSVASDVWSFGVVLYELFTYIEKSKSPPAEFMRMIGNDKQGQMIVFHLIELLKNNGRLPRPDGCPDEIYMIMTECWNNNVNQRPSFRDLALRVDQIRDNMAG

[10] = target: Mitogen-activated protein kinase 1 (Homo sapiens) (UniProt P28482); test: Inhibition of recombinant GST-tagged human ERK2 expressed in Escherichia coli at 10 uM in presence of ATP relative to control
[11] = target: Somatostatin receptor (Mus musculus) (UniProt P30935+O08858+P30875+P30873+P49660); test: Displacement of [125I]Tyr11-somatostatin-14 from mouse SST receptor at 10 uM after 60 mins by scintillation counting analysis relative to control; type: protein assay
[12] = target: D(1A) dopamine receptor (Homo sapiens, UniProt P21728); test: Displacement of [3H]-SCH 23390 from human recombinant dopamine D1 receptor at 10 uM after 60 mins by scintillation counting analysis relative to control
[13] = target: Neuromedin-K receptor (Homo sapiens, UniProt P29371); test: Displacement of [3H]SR 142801 from human recombinant NK3 receptor after 120 mins by scintillation counting analysis
[14] = target: Tyrosine-protein kinase JAK3 (Homo sapiens) (UniProt P52333); test: Inhibition of recombinant GST-tagged human JAK3 catalytic domain (781 to 1124 residues) expressed in baculovirus expression system at 10 uM in presence of ATP relative to control
Sequence of Tyrosine-protein kinase JAK3 (Homo sapiens) (P52333 whole entry, the tested form may be a part): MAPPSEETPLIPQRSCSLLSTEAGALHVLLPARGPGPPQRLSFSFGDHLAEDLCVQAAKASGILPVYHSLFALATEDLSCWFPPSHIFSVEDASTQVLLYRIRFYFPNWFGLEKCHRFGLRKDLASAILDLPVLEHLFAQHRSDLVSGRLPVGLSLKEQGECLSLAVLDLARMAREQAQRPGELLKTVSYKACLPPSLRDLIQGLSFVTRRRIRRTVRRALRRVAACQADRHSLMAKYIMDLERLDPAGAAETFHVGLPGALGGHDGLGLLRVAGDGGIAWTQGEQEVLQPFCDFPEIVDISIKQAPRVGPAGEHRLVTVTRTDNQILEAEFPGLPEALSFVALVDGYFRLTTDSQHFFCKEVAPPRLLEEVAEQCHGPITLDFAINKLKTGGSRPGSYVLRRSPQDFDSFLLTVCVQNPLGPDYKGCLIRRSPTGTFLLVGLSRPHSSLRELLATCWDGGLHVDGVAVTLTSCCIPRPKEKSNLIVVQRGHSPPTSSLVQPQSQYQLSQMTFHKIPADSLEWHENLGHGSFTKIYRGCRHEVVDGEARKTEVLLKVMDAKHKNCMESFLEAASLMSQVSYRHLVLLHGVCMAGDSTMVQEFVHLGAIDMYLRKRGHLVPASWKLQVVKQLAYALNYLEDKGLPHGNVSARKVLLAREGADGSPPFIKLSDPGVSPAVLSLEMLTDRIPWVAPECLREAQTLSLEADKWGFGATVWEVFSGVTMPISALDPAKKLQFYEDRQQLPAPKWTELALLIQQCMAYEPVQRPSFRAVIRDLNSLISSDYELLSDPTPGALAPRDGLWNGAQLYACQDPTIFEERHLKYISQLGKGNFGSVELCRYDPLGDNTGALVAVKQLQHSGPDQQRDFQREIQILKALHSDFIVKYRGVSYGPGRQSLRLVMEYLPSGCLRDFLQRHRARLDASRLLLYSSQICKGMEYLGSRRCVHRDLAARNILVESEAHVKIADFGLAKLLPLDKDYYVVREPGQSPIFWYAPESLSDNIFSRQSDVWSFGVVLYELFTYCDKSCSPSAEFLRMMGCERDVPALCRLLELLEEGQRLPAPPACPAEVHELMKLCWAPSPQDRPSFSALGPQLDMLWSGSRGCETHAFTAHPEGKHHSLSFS

[15] = Displacement of [125I]alpha-dendrotoxin from rat brain voltage-gated K channel after 60 mins by scintillation counting analysis
[16] = Half life in human microsomes; type: ADME, Microsome
[17] = target: Receptor-type tyrosine-protein kinase FLT3 (Homo sapiens) (UniProt P36888); test: Inhibition of recombinant His-tagged human FLT3 (564 to 958 residues) cytoplasmic domain expressed in baculovirus expression system at 10 uM in presence of ATP relative to control
[18] = target: T2, Nuclear receptor ROR-gamma (Homo sapiens, UniProt P51449); test: Binding affinity to recombinant human RORgamma LBD (237 to 497 residues) expressed in Escherichia coli BL21 (DE3) GOLD by 1,8-ANS dye-based thermofluor assay
T2 sequence (P51449 whole entry): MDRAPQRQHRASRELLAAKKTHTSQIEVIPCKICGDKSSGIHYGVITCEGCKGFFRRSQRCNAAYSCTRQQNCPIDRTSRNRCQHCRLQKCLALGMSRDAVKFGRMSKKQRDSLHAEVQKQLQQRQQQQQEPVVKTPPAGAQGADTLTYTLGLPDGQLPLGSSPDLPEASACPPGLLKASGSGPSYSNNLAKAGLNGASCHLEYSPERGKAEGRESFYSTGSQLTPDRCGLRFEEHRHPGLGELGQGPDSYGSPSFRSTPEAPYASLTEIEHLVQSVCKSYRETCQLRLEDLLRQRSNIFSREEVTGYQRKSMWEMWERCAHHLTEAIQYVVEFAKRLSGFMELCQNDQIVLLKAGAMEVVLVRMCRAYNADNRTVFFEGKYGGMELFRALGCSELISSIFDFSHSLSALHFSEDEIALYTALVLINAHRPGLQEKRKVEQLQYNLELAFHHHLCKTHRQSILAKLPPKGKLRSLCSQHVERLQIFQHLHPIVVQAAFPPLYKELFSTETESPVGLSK

[19] = target: Protein kinase C alpha type (Homo sapiens) (UniProt P17252); test: Inhibition of recombinant full length human PKCalpha expressed in baculovirus expression system at 10 uM in presence of ATP relative to control
[20] = target: Serine/threonine-protein kinase PAK 4 (Homo sapiens) (UniProt O96013); test: Inhibition of recombinant GST-tagged human PAK4 catalytic domain expressed in baculovirus expression system at 10 uM in presence of ATP relative to control
[21] = target: Cyclin-dependent kinase 1/cyclin B1 (Homo sapiens) (UniProt P06493+P14635); test: Inhibition of recombinant full length His-tagged human CDK1/Cyclin B expressed in baculovirus expression system at 10 uM in presence of ATP relative to control
[22] = target: Platelet-derived growth factor receptor beta (Homo sapiens) (UniProt P09619); test: Inhibition of recombinant His-tagged human PDGFRbeta (558 to 1106 residues) cytoplasmic domain expressed in baculovirus expression system at 10 uM in presence of ATP relative to control
[23] = target: 5-hydroxytryptamine receptor 5A (Homo sapiens, UniProt P47898); test: Displacement of [3H]LSD from human recombinant 5-HT5a receptor after 120 mins by scintillation counting analysis
Sequence of 5-hydroxytryptamine receptor 5A (P47898 whole entry): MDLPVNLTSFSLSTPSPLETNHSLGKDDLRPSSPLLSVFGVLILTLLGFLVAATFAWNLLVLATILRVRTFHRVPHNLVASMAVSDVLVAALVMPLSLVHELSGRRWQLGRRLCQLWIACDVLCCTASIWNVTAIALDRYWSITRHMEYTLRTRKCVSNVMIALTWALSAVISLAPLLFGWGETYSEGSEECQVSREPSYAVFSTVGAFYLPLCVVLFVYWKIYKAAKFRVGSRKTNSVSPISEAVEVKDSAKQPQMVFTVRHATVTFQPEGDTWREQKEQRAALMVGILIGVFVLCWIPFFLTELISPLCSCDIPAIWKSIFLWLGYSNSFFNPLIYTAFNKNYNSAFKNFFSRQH

[24] = target: T1, Histamine H2 receptor; test: Displacement of [125I]APT from human recombinant histamine H2 receptor at 10 uM after 120 mins by scintillation counting analysis relative to control
[25] = target: Vasoactive intestinal polypeptide receptor 1 (Homo sapiens) (UniProt P32241); test: Displacement of [125I]VIP from human recombinant VPAC1 receptor at 10 uM after 60 mins by scintillation counting analysis relative to control
[26] = target: Adenosine receptor A3 (Homo sapiens, UniProt P0DMS8); test: Displacement of [125I]AB-MECA from human recombinant adenosine A3 receptor after 120 mins by scintillation counting analysis
[27] = target: 5-hydroxytryptamine receptor 2B (Homo sapiens, UniProt P41595); test: Displacement of [125I]+/-DOI from human recombinant 5-HT2B receptor after 60 mins by scintillation counting analysis

Sequence of Adenosine receptor A1 (Homo sapiens) (P30542 whole entry): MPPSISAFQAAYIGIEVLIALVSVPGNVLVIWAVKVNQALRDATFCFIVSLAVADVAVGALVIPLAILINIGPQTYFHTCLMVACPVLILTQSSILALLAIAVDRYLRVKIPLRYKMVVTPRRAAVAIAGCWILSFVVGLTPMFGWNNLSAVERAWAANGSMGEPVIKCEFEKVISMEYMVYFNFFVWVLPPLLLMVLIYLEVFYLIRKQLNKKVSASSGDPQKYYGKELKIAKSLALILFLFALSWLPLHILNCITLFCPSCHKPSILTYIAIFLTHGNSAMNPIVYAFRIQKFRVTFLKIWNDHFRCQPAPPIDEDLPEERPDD

CC(C)(C)NS(=O)(=O)c1ccc(-c2sc(C(=O)N[C@H]3C[C@H](C(=O)O)C3)nc2CC2CCCCC2)c2ccccc12
IC50 [1]: 0.24 nM | inhibition [2]: < 10% | inhibition [3]: 47% | inhibition [4]: < 10% | inhibition [5]: 16% | inhibition [6]: < 10% | inhibition [7]: < 10% | IC50 [8]: 114 nM | inhibition [9]: 2% | inhibition [10]: -6% | inhibition [11]: < 10% | inhibition [12]: 12% | IC50 [13]: 8.2 nM | inhibition [14]: -3% | IC50 [15]: 0.22 nM | half-life [16]: 1.25 h | inhibition [17]: 0% | Kd [18]: 0.12 nM | inhibition [19]: -1% | inhibition [20]: 7% | inhibition [21]: -3% | inhibition [22]: -4% | IC50 [23]: 106 nM | inhibition [24]: < 10% | inhibition [25]: < 10% | IC50 [26]: 0.17 nM | IC50 [27]: 3.2 nM

Source: ChEMBL document CHEMBL4118122, “Identification and biological evaluation of thiazole-based inverse agonists of RORγt” (Bioorg Med Chem Lett, 2018)
